Experimental data reported in publication PMC11475482, “The 2‐oxoglutarate/malate carrier extends the family of mitochondrial carriers capable of fatty acid and 2,4‐dinitrophenol‐activated proton transport” (Acta Physiologica (Oxford, England), 2024).
Where a chain is given by its changes, count along the chain named.

How the values were obtained:
Assay in all cases: planar lipid bilayer proton conductance
Assay type in all cases: biochemical
[1] = biological target: T1, mOGC (2‐oxoglutarate/malate carrier, SLC25A11) (Mus musculus, UniProt Q9CR62)
T1 construct: 34 kDa monomer, dimer (~69 kDa) on SDS-PAGE (dimer possibly artefact); tag not mentioned
T1 sequence (Q9CR62 2-314): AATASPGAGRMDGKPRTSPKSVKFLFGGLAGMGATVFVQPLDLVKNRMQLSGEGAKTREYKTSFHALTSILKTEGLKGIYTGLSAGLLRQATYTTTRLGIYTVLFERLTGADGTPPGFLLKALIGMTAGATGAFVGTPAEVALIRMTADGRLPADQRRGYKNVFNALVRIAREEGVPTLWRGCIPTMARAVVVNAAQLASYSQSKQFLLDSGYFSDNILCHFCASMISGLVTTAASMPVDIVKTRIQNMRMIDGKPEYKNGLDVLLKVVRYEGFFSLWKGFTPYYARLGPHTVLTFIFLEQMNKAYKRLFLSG

[2] = biological target: T2, mOGC (2‐oxoglutarate/malate carrier, SLC25A11) (Mus musculus, UniProt Q9CR62, R90S)
T2 construct: 34 kDa monomer, dimer (~69 kDa) on SDS-PAGE (dimer possibly artefact); tag not mentioned
T2 sequence (Q9CR62 2-314 R90S): T1 sequence (Q9CR62 2-314) with R89S

[3] = biological target: T1, mOGC (2‐oxoglutarate/malate carrier, SLC25A11); conditions: total membrane conductance with mOGC; activator (protonophore); pH 7.34, 32°C
[4] = biological target: T1, mOGC (2‐oxoglutarate/malate carrier, SLC25A11); conditions: read-out: % inhibition at 4 mM

SMILES | IC50 [1] | inhibition at 2000 µM [2] | Gm at 15 mol% [3] | inhibition at 4000 µM [4]
O=C(O)CCC(=O)C(=O)O [2‐oxoglutarate] | 60 ± 10 µM | 19% | – | –
O=C(O)CC(C(=O)O)c1ccccc1 (stereo not shown) [phenylsuccinate] | 1000 ± 110 µM | – | – | –
O=C(O)C[C@H](O)C(=O)O [malate] | 100 ± 60 µM | 74% | – | –
CCCCC/C=C\C/C=C\C/C=C\C/C=C\CCCC(=O)O [arachidonic acid] | – | – | 92.5 ± 16.5 nS/cm^2 | –
Nc1ncnc2c1ncn2[C@@H]1O[C@H](COP(=O)(O)OP(=O)(O)OP(=O)(O)O)[C@@H](O)[C@H]1O [ATP] | – | – | – | 75%
